This is an account of results in patent publication US20230099031A1, “BIFUNCTIONAL AGENTS FOR PROTEIN RECRUITMENT AND/OR DEGRADATION” (Orionis Biosciences, Inc., priority 2019, published 2023).

Structures are written as SMILES. Bounds are passed on as bounds.

In one test the target is T1, DHFR (UniProt P0ABQ4+Q96SW2).
T1 construct: Full size proteins are fused for each of the target proteins tested; expressed in transfected cells; host or cells: HEK293T
The test is described as follows: Recruitment Assay (MAPPIT-like): DHFR recruitment to CRBN, pCLG-DHFR+pMG1-CRBN. The class given is cell-based, E. coli. Particulars: for EC50: HEK293T cells, luciferase 24 hours after compound treatment, read-out: Recruitment EC50 (M), target protein DHFR. On the procedure: (§1) In this experimental set-up, cells are transfected with a construct encoding a CRBN-fusion protein and another one encoding a substrate-fusion protein. Test compound activity is assessed with increasing concentrations of test compounds (dose-response studies) to monitor the ability to promote CRBN-ligand-induced protein interaction.
(§2) Full size proteins are fused for each of the target proteins tested, except in the case of IKZF1 where isoform 7 is used, and BRD4, where isoform 3 is applied. For the study, the following construct combinations are used: IKZF1 recruitment: pSEL-CRBN+pMG1-IKZF1(isoform 7); ASS1 recruitment: pSEL-CRBN+pMG1-ASS1; SALL4 recruitment: pSEL-SALL4+pMG1-CRBN; DHFR recruitment: pCLG-DHFR+pMG1-CRBN; ESR1 recruitment: pSEL-CRBN+pMG1-ESR1; BRD4 recruitment: pSEL-CRBN+pMG1-BRD4(isoform 3). Cells are treated with erythropoietin (Epo; where pSEL-type receptor fusions constructs are used) or leptin (in the case pCLG-type receptor fusion constructs are applied) without or with the indicated dose of test compound at 24 hours after transfection. Luciferase activity is measured 24 hours after test compound treatment using the Luciferase Assay System kit (PROMEGA, Madison, Wis.) with an Ensight plate reader (PERKIN ELMER LIFE SCIENCES, Waltham, Mass.). Data points depict fold induction of the average luciferase activity of triplicate samples from Epo or leptin+test compound treated cells versus Epo or leptin only treated cells. Error bars represent standard deviations. Curves are fit using 4-parameter nonlinear regression in […] PRISM software.
Error bars represent standard deviations and curves were fit using 4-parameter nonlinear regression in […] PRISM software.

In a further test the target is T2, CRBN (Homo sapiens, UniProt Q96SW2).
T2 construct: expressed in transfected cells; host or cells: HEK293T
The test is described as follows: Competition Assay: MAPPIT-like, competition with trimethoprim-lenalidomide hybrid ligand for binding to CRBN in HEK293T cells. Type of test: cell-based. The conditions noted are these: protocol and reagents of Example 1; read-out: IC50 Competition.

The target in a further test is T3, IKZF1 (Homo sapiens, UniProt Q13422+Q96SW2).
T3 construct: expressed in transfected cells; host or cells: HEK293T
The test is described as follows: Recruitment Assay (MAPPIT-like): IKZF1 recruitment, pSEL-CRBN+pMG1-IKZF1(isoform 7). Type of test: cell-based. The conditions noted are these: recruitment of IKZF1, protocol of Example 2; read-out: EC50_IKZF1. On the procedure: as §1, §2

For the next test, the target named is T4, ASS1 (Homo sapiens, UniProt P00966+Q96SW2).
T4 construct: Full size proteins are fused for each of the target proteins tested; expressed in transfected cells; host or cells: HEK293T
The test is described as follows: Recruitment Assay (MAPPIT-like): ASS1 recruitment, pSEL-CRBN+pMG1-ASS1. Type of test: cell-based. The conditions noted are these: recruitment of ASS1, protocol of Example 2; for EC50: read-out: EC50_ASS1. As for the experimental part: as §1, §2

The target in the next test is T5, SALL4 (Homo sapiens, UniProt Q96SW2+Q9UJQ4).
T5 construct: Full size proteins are fused for each of the target proteins tested; expressed in transfected cells; host or cells: HEK293T
Description: Recruitment Assay (MAPPIT-like): SALL4 recruitment, pSEL-SALL4+pMG1-CRBN. The class given is cell-based. The conditions noted are these: recruitment of SALL4, protocol of Example 2; read-out: EC50_SALL4. On the procedure: as §1, §2

As for `COc1cc(Cc2cnc(N)cc2N)cc(OC)c1OCCCCC(=O)NCCOCCOCCOCCNC(=O)COc1ccc2nc(C(=O)Cc3ccc4c(c3)C(=O)N(C3CCC(=O)NC3=O)C4)ccc2c1` (stereo not shown) [Compound 5.10], the EC50 at DHFR stood at 7.95e-08 M.
Still for that read-out and setting: the value for `COc1cc(Cc2cnc(N)nc2N)cc(OC)c1OCCCCC(=O)NCCOCCOCCOCCNC(=O)c1cccc(CNC(=O)CNc2ccc3c(c2)C(=O)N(C2CCC(=O)NC2=O)C3)c1` (stereo not shown) [Compound 5.12] was 3.55e-08 M.
The same measure, in the same setting: in the case of `COc1cc(Cc2cnc(N)nc2N)cc(OC)c1OCCCCC(=O)NCCOCCOCCOCCNC(=O)COc1ccc(Br)c2c1C(=O)N(C1CCC(=O)NC1=O)C2` (stereo not shown) [Compound 5.13] it was 4.69e-07 M; in that of `COc1cc(Cc2cnc(N)nc2N)cc(OC)c1OCCCCC(=O)NCCOCCOCCOCCNC(=O)c1ccc2ncnc(Nc3ccc4c(c3)C(=O)N(C3CCC(=O)NC3=O)C4)c2c1` (stereo not shown) [Compound 5.19], 4.2e-09 M.
For the compound `COc1cc(Cc2cnc(N)nc2N)cc(OC)c1OCCCCC(=O)NCCOCCOCCOCCNC(=O)c1ccc2c(Nc3ccc4c(c3)C(=O)N(C3CCC(=O)NC3=O)C4)ncnc2c1` (stereo not shown) [Compound 5.20], the EC50 on DHFR was found to be 1.01e-08 M.
Still for that read-out and setting: the value for `COc1cc(Cc2cnc(N)nc2N)cc(OC)c1OCCCCC(=O)NCCOCCOCCOCCNC(=O)Cn1cc(CN(C)C(=O)CNc2ccc3c(c2)C(=O)N(C2CCC(=O)NC2=O)C3)cn1` (stereo not shown) [Compound 5.23] was 1.19e-07 M.
Still for that read-out and setting: the value for `COc1cc(Cc2cnc(N)nc2N)cc(OC)c1OCCCCC(=O)NCCOCCOCCOCCNC(=O)CN1CCN(C(=O)CNc2ccc3c(c2)C(=O)N(C2CCC(=O)NC2=O)C3)C(C)C1` (stereo not shown) [Compound 5.26] was 4.5e-07 M; that for `COc1cc(Cc2cnc(N)nc2N)cc(OC)c1OCCCCC(=O)NCCOCCOCCOCCNC(=O)c1ccc2c(c1)CN(C(=O)CNc1ccc3c(c1)C(=O)N(C1CCC(=O)NC1=O)C3)C2` (stereo not shown) [Compound 5.46] was 1.44e-08 M.
A word on the IC50: it is the midpoint of a concentration-inhibition curve. On to `Cc1cccc2nnn(C3CCC(=O)NC3=O)c(=O)c12` (stereo not shown) [Compound C13247, 3-(5-methyl-4-oxo-1,2,3-benzotriazin-3-yl)piperidine-2,6-dione], for which, on CRBN, the IC50 stood at 2290 nM. Also, the values for the EC50 at IKZF1, at ASS1 and on SALL4 were 2880 nM, 8550 nM and 402 nM, respectively.
Consider `CS(=O)(=O)Nc1cccc2c1CN(C1CCC(=O)NC1=O)C2=O` (stereo not shown) [Compound C22548, N-[2-(2,6-dioxo-3-piperidyl)-1-oxo-isoindolin-4-yl]methanesulfonamide], for which the IC50 at CRBN was determined as 1110 nM. Also, the EC50 was 494 nM on IKZF1 and 631 nM at SALL4. The “EC50_ASS1 (M)” value on ASS1 is listed as “>>”.
`O=C1CCC(N2Cc3c(Cl)cccc3C2=O)C(=O)N1` (stereo not shown) [Compound C24031, 3-(4-chloro-1-oxo-isoindolin-2-yl)piperidine-2,6-dione]: the IC50 on CRBN was determined as 11.5 nM. The EC50 on IKZF1 was 58.7 nM; on ASS1, 259 nM; at SALL4, below 13.7 nM.
For `Cc1cccc2c1CN(C1CCC(=O)NC1=O)C2=O` (stereo not shown) [Compound C28558, 3-(4-methyl-1-oxo-isoindolin-2-yl)piperidine-2,6-dione] the same measures were 50.4 nM, 77.4 nM, 368 nM and below 13.7 nM.
For `Cc1ccc2c(c1)CN(C1CCC(=O)NC1=O)C2=O` (stereo not shown) [Compound C28577, 3-(5-methyl-1-oxo-isoindolin-2-yl)piperidine-2,6-dione] the same measures were 113 nM, 1610 nM, 653 nM and below 13.7 nM.
For the compound `O=C1CCC(N2Cc3c(NC(=O)Nc4cccc5c4CN(C4CCC(=O)NC4=O)C5=O)cccc3C2=O)C(=O)N1` (stereo not shown) [Compound C30231, 1,3-bis[2-(2,6-dioxo-3-piperidyl)-1-oxo-isoindolin-4-yl]urea], the IC50 at CRBN came to 247000 nM. Besides, the values for the EC50 at IKZF1 and on SALL4 were 2730 nM and 1780 nM, respectively. In addition, the “EC50_ASS1 (M)” value on ASS1 is “>>”.
For `O=C1CCC(N2Cc3cc(NCC(=O)Nc4ccccc4)ccc3C2=O)C(=O)N1` (stereo not shown) [Compound C35797, 2-[[2-(2,6-dioxo-3-piperidyl)-1-oxo-isoindolin-5-yl]amino]-N-phenyl-acetamide], on CRBN, the IC50 is 851 nM. Also, the EC50 is 1330 nM on IKZF1 and 1080 nM at SALL4. Further, on ASS1, the “EC50_ASS1 (M)” value was “>>”.
The matching figures for `O=C(CNc1ccc2c(c1)CN(C1CCC(=O)NC1=O)C2=O)NCc1ccccc1` (stereo not shown) [Compound C35856, N-benzyl-2-[[2-(2,6-dioxo-3-piperidyl)-1-oxo-isoindolin-5-yl]amino]acetamide]: 484 nM, 1150 nM, 188 nM and “>>”.
Regarding `N#Cc1ccc2c(c1)C(=O)N(C1CCC(=O)NC1=O)C2` (stereo not shown) [Compound C48007, 2-(2,6-dioxo-3-piperidyl)-3-oxo-isoindoline-5-carbonitrile], the IC50 on CRBN was 1340 nM. Also, the EC50 came to 1620 nM on IKZF1 and 430 nM on SALL4. Moreover, on ASS1, the “EC50_ASS1 (M)” value is reported as “>>”.
In the case of `O=C1CCC(N2Cc3c(cccc3-c3ccccc3)C2=O)C(=O)N1` (stereo not shown) [Compound C48014, 3-(1-oxo-4-phenyl-isoindolin-2-yl)piperidine-2,6-dione], the IC50 on CRBN was found to be 24.3 nM. For the same compound, the EC50 at IKZF1 was found to be 1240 nM; on ASS1, 921 nM; on SALL4 it was 62.1 nM.
`CC1c2ccccc2C(=O)N1C1CCC(=O)NC1=O` (stereo not shown) [Compound C51383, 3-(1-methyl-3-oxo-isoindolin-2-yl)piperidine-2,6-dione]: the IC50 at CRBN was found to be 190 nM. Besides, the EC50 on IKZF1 was 1520 nM; at ASS1 it was 1700 nM; on SALL4, 59.3 nM.
The matching figures for `Nc1cccc2nnn(C3CCC(=O)NC3=O)c(=O)c12` (stereo not shown) [Compound C59904, 3-(5-amino-4-oxo-1,2,3-benzotriazin-3-yl)piperidine-2,6-dione]: 704 nM, 122 nM, 698 nM and 33 nM.
For `O=C1CCC(N2Cc3c(ccc4c3OCO4)C2=O)C(=O)N1` (stereo not shown) [Compound C67858, 3-(6-oxo-8H-[1,3]dioxolo[4,5-e]isoindol-7-yl)piperidine-2,6-dione] the same measures were 106 nM, 569 nM, 884 nM and 29.3 nM.
As to `O=C1CCC(N2Cc3cc(Nc4ncc5c(n4)COC5)ccc3C2=O)C(=O)N1` (stereo not shown) [Compound C80380, 3-[5-(5,7-dihydrofuro[3,4-d]pyrimidin-2-ylamino)-1-oxo-isoindolin-2-yl]piperidine-2,6-dione], the IC50 on CRBN came out at 760 nM. Moreover, the results for the EC50 at IKZF1 and on SALL4 were 1780 nM and 9.89 nM, respectively.
Turning to `CN(C)c1ccc2c(c1)CN(C1CCC(=O)NC1=O)C2=O` (stereo not shown) [Compound C98103, 3-[5-(dimethylamino)-1-oxo-isoindolin-2-yl]piperidine-2,6-dione], the IC50 at CRBN amounted to 145 nM. The EC50 at IKZF1 is 1290 nM; at SALL4, below 13.7 nM. Besides, the “EC50_ASS1 (M)” value at ASS1 is on record as “>>”.
On to `COc1cc(Cc2cnc(N)nc2N)cc(OC)c1OCCCCC(=O)NCCOCCOCCOCCn1cc(CCC(=O)Nc2cccc3c2CN(C2CCC(=O)NC2=O)C3=O)nn1` (stereo not shown) [TMP-LEN, Trimethoprim-lenalidomide], for which the “hybrid ligand-induced binding between CRBN and DHFR (MAPPIT signal, FIG. 3)” value at DHFR (CRBN as gp130 fusion, DHFR linked to MAPPIT chimeric membrane receptor) is “dose-dependent signal can be observed”. Besides, on DHFR, the EC50 came out at 1.86e-08 M.
Turning to `O=C(O)CN1CCN(Cc2ccc(COc3cccc4c3CN(C3CCC(=O)NC3=O)C4=O)cc2)CC1` (stereo not shown) [ZE26-0001, formic acid], the IC50 on CRBN was 5760 nM. The EC50 on IKZF1 is 4680 nM; at SALL4 it was 801 nM. For the same compound, the “EC50_ASS1 (M)” value on ASS1 is reported as “>>”.
